The source of these data is patent US7419966B2, “[5-carboxamido or 5-fluoro]-[2′,3′-unsaturated or 3′-modified]-pyrimidine nucleosides” (Emory University, priority 1995, dated 2008).

Like-named read-outs stand apart in the source and are kept apart here.

What all share (format): cell-based
Data set [1] concerns HSV-1F. In words: Anti-HSV-1 activity in Vero cells. The note with it: Table 1.
Data set [2] concerns Vero cells. In words: Toxicity in Vero cells.
The test system of data set [3] is uninfected human PBM cells. Nature of the data set: Toxicity in mitogen-stimulated uninfected human PBM cells (cell count, trypan blue exclusion). As to the method:
Mitogen stimulated uninfected human PBM cells (3.8×10^5 cells/ml) were cultured in the presence and absence of drug under similar conditions as those used for the antiviral assay described above. The cells were counted after 6 days using a hemacytometer and the trypan blue exclusion method, as described by Schinazi et al., Antimicrobial Agents and Chemotherapy, 22(3), 499 (1982). […]

The test system of data set [4] is various cell lines. Nature of the data set: Toxicity in various cell lines (PBM, CEM, Vero). The conditions noted are these: for toxicity, in words: PBM, CEM and Vero cells.
In data set [5] the test system is HIV-1 (strain LAV). In words: Anti-HIV-1 activity in PHA-stimulated human PBM cells (reverse transcriptase readout). The conditions noted are these: for antiviral activity against HIV, in words: text b71, b85. As to the method:
The ability of nucleosides to inhibit HIV can be measured by various experimental techniques. The technique used herein, and described in detail below, measures the inhibition of viral replication in phytohemagglutinin (PHA) stimulated human peripheral blood mononuclear (PBM) cells infected with HIV-1. (strain LAV). The amount of virus produced is determined by measuring the virus-coded reverse transcriptase enzyme. The amount of enzyme produced is proportional to the amount of virus produced.
Three-day-old phytohemagglutinin-stimulated PBM cells (10^6 cells/ml) from hepatitis B and HIV-1 seronegative healthy donors were infected with HIV-1 (strain LAV) at a concentration of about 100 times the 50% tissue culture infectious dose (TICD 50) per ml and cultured in the presence and absence of various concentrations of antiviral compounds.
Approximately one hour after infection, the medium, with the compound to be tested (2 times the final concentration in medium) or without compound, was added to the flasks (5 ml; final volume 10 ml). AZT was used as a positive control.
The cells were exposed to the virus (about 2×10^5 dpm/ml, as determined by reverse transcriptase assay) and then placed in a CO2 incubator. HIV-1 (strain LAV) was obtained from the Center for Disease Control, Atlanta, Ga. The methods used for culturing the PBM cells, harvesting the virus and determining the reverse transcriptase activity were those described by McDougal et al. (J. Immun. Meth. 76, 171-183, 1985) and Spira et al. (J. Clin. Meth. 25, 97-99, 1987), except that fungizone was not included in the medium (see Schinazi, et al., Antimicrob. Agents Chemother. 32, 1784-1787 (1988); Id., 34:1061-1067 (1990)).
On day 6, the cells and supernatant were transferred to a 15 ml tube and centrifuged at about 900 g for 10 minutes. Five ml of supernatant were removed and the virus was concentrated by centrifugation at 40,000 rpm for 30 minutes (Beckman 70.1 Ti rotor). The solubilized virus pellet was processed for determination of the levels of reverse transcriptase. Results are expressed in dpm/ml of sampled supernatant. Virus from smaller volumes of supernatant (1 ml) can also be concentrated by centrifugation prior to solubilization and determination of reverse transcriptase levels.

For data set [6], the system named is CEM cells. Nature of the data set: Toxicity in CEM cells.
In data set [7] the test system is HIV-2ROD2. Nature of the data set: Anti-HIV-2 activity in PBMC. The conditions noted are these: Table 3; HIV-2ROD2; read-out: Anti-HIV-2 in PBMC EC50.
Data set [8] has as its system SIVSMM. In words: Anti-SIV activity in PBMC. The note with it: Table 3; SIVSMM; read-out: Anti-SIV in PBMC EC50.
Data set [9] relates to hepatitis B virus in transfected HepG-2 (2.2.15) cells. In words: Anti-HBV activity in 2.2.15 cell cultures (HBV virion DNA and replicative intermediates). The conditions noted are these: for EC50 / EC90: day 9. As to the method: The ability of the active compounds to inhibit the growth of virus in 2.2.15 cell cultures (HepG2 cells transformed with hepatitis virion) can be evaluated as described in detail below.
A summary and description of the assay for antiviral effects in this culture system and the analysis of HBV DNA has been described (Korba and Milman, 1991, Antiviral Res., 15:217). The antiviral evaluations were performed on two separate passages of cells. All wells, in all plates, were seeded at the same density and at the same time.
Due to the inherent variations in the levels of both intracellular and extracellular HBV DNA, only depressions greater than 3.5-fold (for HBV virion DNA) or 3.0-fold (for HBV DNA replication intermediates) from the average levels for these HBV DNA forms in untreated cells are considered to be statistically significant [P<0.05]. The levels of integrated HBV DNA in each cellular DNA preparation (which remain constant on a per cell basis in these experiments) were used to calculate the levels of intracellular HBV DNA forms, thereby ensuring that equal amounts of cellular DNA were compared between separate samples.
Typical values for extracellular HBV virion DNA in untreated cells ranged from 50 to 150 pg/ml culture medium (average of approximately 76 pg/ml). Intracellular HBV DNA replication intermediates in untreated cells ranged from 50 to 100 pg/μg cell DNA (average approximately 74 pg/μg cell DNA). In general, depressions in the levels of intracellular HBV DNA due to treatment with antiviral compounds are less pronounced, and occur more slowly, than depressions in the levels of HBV virion DNA (Korba and Milman, 1991, Antiviral Res., 15:217).

Data set [10] relates to 2.2.15 cells (HepG2 cells transformed with hepatitis virion). Nature of the data set: Toxicity in 2.2.15 cells by neutral red dye uptake. The conditions noted are these: Table 4; 2.2.15 cells; read-out: Cytotoxicity IC50 ± SD. The procedure: (§1) Toxicity analyses were performed to assess whether any observed antiviral effects were due to a general effect on cell viability. The method used herein was the measurement of the uptake of neutral red dye, a standard and widely used assay for cell viability in a variety of virus-host systems, including HSV and HIV. Toxicity analyses were performed in 96-well flat bottomed tissue culture plates. Cells for the toxicity analyses were cultured and treated with test compounds with the same schedule as described for the antiviral evaluations below. Each compound was tested at 4 concentrations, each in triplicate cultures (wells “A”, “B”, and “C”). Uptake of neutral red dye was used to determine the relative level of toxicity. The absorbance of internalized dye at 510 nm (Asin) was used for the quantitative analysis. Values are presented as a percentage of the average Asin values in 9 separate cultures of untreated cells maintained on the same 96-well plate as the test compounds. Dye uptake in the 9 control cultures on plate 5 ranged from 91.6% to 110.4%, and on plate 6 from 96.6% to 109%.

A short description of data set [11]: Toxicity in 2.2.15 cells by neutral red dye uptake. The note with it: human, 2.2.15 cells (HepG2 cells transformed with hepatitis virion), 2.2.15 cells, read-out: Cytotoxicity IC50 ± SD. As to the method: as §1
Where [12] appears, read: Table 1, uninfected human PBM cells, 6 days.
Setting [13] is: Table 3, HIV-1LAI, estimated 10% error factor, read-out: Anti-HIV-1 in PBMC EC50.
The mark [14] stands for this setting: Table 4, extracellular DNA, untreated control 88 pg/ml, read-out: HBV virion EC50 ± SD.
Setting [15] is: Table 4, extracellular DNA, untreated control 88 pg/ml, read-out: HBV virion EC90 ± SD.
Setting [16] is: Table 4, replicative intermediates (intracellular DNA), untreated control 79 pg/μg cell DNA, read-out: HBV RI EC50 ± SD.
[17] abbreviates: Table 4, replicative intermediates (intracellular DNA), untreated control 79 pg/μg cell DNA, read-out: HBV RI EC90 ± SD.

“5-carboxylic acid amide-2′,3′-dideoxy-3′-thiacytidine [C Carboxamide (±)-β-DL]”: the EC50 in data set [1] is above 100 µM; in data set [5] (HIV-1 in PBM cells, read-out: median effective concentration (antiviral activity)), 770 nM. Further, the IC50 in data set [2] (Table 1), in data set [3] (setting [12]) and in data set [6] (Table 1) was above 100 µM in each case. Also, the “toxicity (no toxicity up to)” value in data set [4] (various cell lines) is above 100 µM.
For the compound `Nc1ccn([C@@H]2CS[C@H](CO)O2)c(=O)n1` (single isomer, unassigned) [3TC, (−)-enantiomer of 2-hydroxymethyl-5-(cytosin-1-yl)-1,3-oxathiolane, reference compound], the EC50 in [1] was above 100 µM; in data set [7], 20 nM; in [5] (Table 1, HIV-1LAI, human PBM cells, estimated 10% error factor, read-out: Anti-HIV-1 in PBMC EC50), 2 nM; in data set [5] (setting [13]), 2 nM; in data set [8], 20 nM. For the same compound, the IC50 in [2] (Table 1), in data set [2] (Table 3), in data set [3] (setting [12]), in data set [3] (Table 3), in data set [6] (Table 1) and in [6] (Table 3) was above 100 µM throughout.
On to `Nc1ccn([C@@H]2C=C[C@H](CO)O2)c(=O)n1` [L-D4C, β-L-2′,3′-didehydro-2′,3′-dideoxy-cytidine], for which the EC50 in data set [9] (setting [14]) is 150 ± 20 nM; in data set [9] (setting [16]) it was 910 ± 90 nM; in data set [7], 33 nM; in data set [5] (setting [13]), 5.8 nM; in data set [8], 48 nM. Further, the EC90 in data set [9] (setting [15]) amounted to 330 ± 40 nM; in data set [9] (setting [17]) it was 2300 ± 300 nM. For the same compound, the IC50 in [10] was 1.04 ± 0.092 mM; in data set [2] (Table 3) it was 10.8 µM; in [3] (Table 3), above 100 µM; in data set [6] (Table 3), 0.73 µM. Besides, the “toxicity, in words” value in data set [4] was “relatively nontoxic”. The “antiviral activity against HIV, in words” value in [5] is reported as “significant activity against HIV”.
For the compound `Nc1nc(=O)n([C@@H]2C=C[C@H](CO)O2)cc1F` [L-F-D4C, β-L-2′,3′-didehydro-2′,3′-dideoxy-5-fluoro-cytidine], the EC50 was 280 ± 30 nM in data set [9] (setting [14]); 330 ± 40 nM in data set [9] (setting [16]); 0.6 nM in [7]; 1.5 nM in data set [5] (setting [13]); 0.15 nM in [8]. Further, the EC90 was 410 ± 40 nM in data set [9] (setting [15]) and 750 ± 70 nM in data set [9] (setting [17]). For the same compound, the IC50 is above 0.003 mM in [10], 40.3 µM in data set [2] (Table 3), above 100 µM in [3] (Table 3) and 7.3 µM in data set [6] (Table 3). The “toxicity, in words” value in data set [4] was “relatively nontoxic”. For the same compound, the “antiviral activity against HIV, in words” value in data set [5] is “significant activity against HIV”.
As to `Nc1ccn([C@H]2CC[C@@H](CO)O2)c(=O)n1` [β-D-DDC, 2′,3′-dideoxycytidine, reference compound], the EC50 amounted to 3400 ± 400 nM in data set [9] (Hepatitis B virus, HepG2 2.2.15, 216 h, read-out: HBV RI EC50 ± SD, Table 2, replicative intermediates (intracellular DNA), untreated control 87 pg/μg cell DNA); 2400 ± 300 nM in [9] (Hepatitis B virus, HepG2 2.2.15, 216 h, read-out: HBV RI EC50 ± SD, Table 4, replicative intermediates (intracellular DNA), untreated control 79 pg/μg cell DNA); 1400 ± 200 nM in [9] (Hepatitis B virus, HepG2 2.2.15, 216 h, read-out: HBV virion EC50 ± SD, Table 2, extracellular DNA, untreated control 102 pg/ml); 1500 ± 200 nM in data set [9] (Hepatitis B virus, HepG2 2.2.15, 216 h, read-out: HBV virion EC50 ± SD, Table 4, extracellular DNA, untreated control 88 pg/ml). Also, the EC90 worked out at 13000 ± 1400 nM in data set [9] (Hepatitis B virus, HepG2 2.2.15, 216 h, read-out: HBV RI EC90 ± SD, Table 2, replicative intermediates (intracellular DNA), untreated control 87 pg/μg cell DNA); 12000 ± 1100 nM in [9] (Hepatitis B virus, HepG2 2.2.15, 216 h, read-out: HBV RI EC90 ± SD, Table 4, replicative intermediates (intracellular DNA), untreated control 79 pg/μg cell DNA); 9600 ± 1100 nM in data set [9] (Hepatitis B virus, HepG2 2.2.15, 216 h, read-out: HBV virion EC90 ± SD, Table 2, extracellular DNA, untreated control 102 pg/ml); 8200 ± 800 nM in data set [9] (Hepatitis B virus, HepG2 2.2.15, 216 h, read-out: HBV virion EC90 ± SD, Table 4, extracellular DNA, untreated control 88 pg/ml). Moreover, the “Selectivity Index IC50/EC90 RI” value in data set [9] (Table 2) worked out at 18; in [9] (Table 4) it was 22. For the same compound, the results for the “Selectivity Index IC50/EC90 Virion” value in [9] (Table 2) and in data set [9] (Table 4) were 26 and 37, respectively. The IC50 was 236 ± 21 µM in data set [11] (Table 2) and 259 ± 18 µM in data set [11] (Table 4).
Take `Nc1nc(=O)n([C@@H]2CS[C@H](CO)O2)cc1F` [β-L-FTC, (−)-cis-2-hydroxymethyl-5-(5-fluorocytosin-1-yl)-1,3-oxathiolane, reference compound]: the EC50 in data set [9] (Hepatitis B virus, HepG2 2.2.15, 216 h, Table 2, extracellular DNA, untreated control 102 pg/ml, read-out: HBV virion EC50 ± SD) came out at 40 ± 6 nM; in data set [9] (Hepatitis B virus, HepG2 2.2.15, 216 h, Table 2, replicative intermediates (intracellular DNA), untreated control 87 pg/μg cell DNA, read-out: HBV RI EC50 ± SD), 160 ± 10 nM. Further, the EC90 in data set [9] (Hepatitis B virus, HepG2 2.2.15, 216 h, Table 2, extracellular DNA, untreated control 102 pg/ml, read-out: HBV virion EC90 ± SD) came out at 1100 ± 100 nM; in data set [9] (Hepatitis B virus, HepG2 2.2.15, 216 h, Table 2, replicative intermediates (intracellular DNA), untreated control 87 pg/μg cell DNA, read-out: HBV RI EC90 ± SD), 390 ± 220 nM. In addition, the “Selectivity Index IC50/EC90 RI” value in [9] (Table 2) is listed as 1,913. Moreover, in data set [9] (Table 2), the “Selectivity Index IC50/EC90 Virion” value worked out at 678. Moreover, in data set [11] (Table 2), the IC50 is 746 ± 33 µM.

The IC50 is the point on the concentration scale where inhibition reaches its midpoint. As usually defined, the EC90 is the point of the concentration-response curve where the effect stands at 90%.
